Read-outs that look alike come from different tables or passages of the source.
Legend:
[1] = tested on: HL-60 cell; parameters: method as in PMID 6572492; conditions: cited from earlier work
[2] = tested on: VDR; conditions: cited from earlier work; for IC50: literature values, read-out: VDR Affinity IC50
[3] = tested on: VDR; conditions: literature values, cited from earlier work; for EC50: read-out: Transcriptional Activity EC50
[4] = tested on: VDR; conditions: antagonist activity for 1; read-out: Antagonistic Activity IC50; cited from earlier work
[5] = tested on: CYP24A1 expression in HaCaT cells; parameters: method as in PMID 17325131, PMID 24773565; conditions: cited from earlier work
[6] = tested on: CYP24A1 expression in intestine-derived HCT116 cells; parameters: method as in PMID 17325131; conditions: cited from earlier work
[7] = tested on: VDR; assay: VDR affinity, previously reported; format: binding
[8] = tested on: human dedifferentiated fat (DFAT) cells; assay: Osteogenic differentiation assay: ALP activity in human DFAT cells; format: cell-based; conditions: osteogenic medium, 100 nM, 7 days, natural hormone 1 = 100%
Experimental: Mature adipocytes from the adipose tissue of mammals such as humans and rodents can be dedifferentiated into pluripotent cells using ceiling culture. Dedifferentiated fat (DFAT) cells have potential applications in both regenerative medicine and injury healing, as well as mesenchymal stem cells, embryonic stem cells, and induced pluripotent stem cells. The osteogenic activity of vitamin D derivatives was assessed based on alkaline phosphatase (ALP) activity.
Samples of human subcutaneous adipose tissue were obtained from patients who underwent surgery in the Department of Pediatric Surgery at Nihon University Itabashi Hospital (Tokyo, Japan). The patients gave their written informed consent, and the Ethics Committee of Nihon University School of Medicine approved this study. We prepared dedifferentiated fat (DFAT) cells using the ceiling culture method, as described previously. Briefly, the adipose tissue (approximately 1 g) was cut into small pieces and digested with a 0.1% type I collagenase solution (Koken Co., Ltd., Tokyo, Japan). […] The cells that adhered to the upper surface of the flasks were cultured for conversion to dedifferentiated fat cells. […] Cells at passages 2–4 were used for differentiation experiments.
Cells were grown to confluency in 24-well plates and incubated for a week in DMEM containing 10% FBS, 100 nM dexamethasone (Merk), 10 mM β-glycerophosphate (Merk), and […] L-ascorbic acid-2-phosphate (Merk), with 100 nM of each compound. The induction medium was replaced on day 4. The alkaline phosphatase (ALP) activity in the cell lysates was determined on day 7 with a lab assay ALP kit (Fujifilm wako). The total protein content was determined with the BCA protein assay kit (Thermo Fisher Scientific). ALP levels were normalized to the total protein content.

[9] = parameters: method as in PMID 26613420; conditions: versus natural hormone 1; cited from earlier work

Row | Structure (SMILES) | IC50 [2] | Transcriptional Activity % Efficacy of That of 1 [3] | EC50 [3] | IC50 [4] | CYP24A1 expression compared to 1 [5] | further results
1 | C=C1/C(=C\C=C2/CCC[C@]3(C)[C@@H]([C@H](C)CCC(F)(F)C(C)(C)O)CC[C@@H]23)C[C@H](O)C[C@H]1O [24F2-1,25(OH)2D3, 24, 24-difluoro-1α, 25-dihydroxyvitamin D3] |  |  |  |  |  | activity in HL-60 cell differentiation versus natural metabolite (1) [1]: four to seven times more activity than natural metabolite (1)
2 | C[C@H](/C=C/C[C@H](O)C12CC3CC(CC(C3)C1)C2)[C@H]1CC[C@H]2/C(=C/C=C3C[C@@H](O)C[C@H](O)C3)CCC[C@]12C [AD47] | 5 nM | 17% | 300 nM | 400 nM | 50% | CYP24A1 expression compared to 1 [6]: 75%
3 | C=C1[C@H](O)CC(=C/C=C2\CCC[C@]3(C)[C@@H]([C@H](C)/C=C/C[C@H](O)C45CC6CC(CC(C6)C4)C5)CC[C@@H]23)C[C@H]1O [ADNY93] | 0.1 nM | 17% | 1 nM | 1.2 nM |  | VDR affinity, times that of AD47 (2) ([7]; effect of exocyclic methylene at C-2, values of Table 1): 50 times
4 | C=C1[C@H](O)CC(=C/C=C2\CCC[C@]3(C)[C@@H]([C@H](C)CC#C[C@@H](O)C45CC6CC(CC(C6)C4)C5)CC[C@@H]23)C[C@H]1O [ADTK1] | 0.5 nM | 81% |  |  | less than 50% | ALP activity [8]: 45.6%; VDR affinity, % of that of 1 ([2]; relative to 1,25(OH)2D3 (1)): 90%
5 | C=C1[C@H](O)CC(=C/C=C2\CCC[C@]3(C)[C@@H]([C@H](C)CC#C[C@H](O)C45CC6CC(CC(C6)C4)C5)CC[C@@H]23)C[C@H]1O [ADTK2] | 12 nM | > 38% | 6.6 nM |  |  | times less potent than 5b (25S) ([7]; 25R versus 25S epimer, values of ref 42): 24 times
6 | C=C1[C@H](O)CC(=C/C=C2\CCC[C@]3(C)[C@@H](C#CC#C[C@@H](O)C45CC6CC(CC(C6)C4)C5)CC[C@@H]23)C[C@H]1O [ADYW2] | 5 nM | 86% | 1.5 nM |  |  | stability in MG63 cells [9]: more stable than natural hormone 1

— paper PMC10377034, “Syntheses of 25-Adamantyl-25-alkyl-2-methylidene-1α,25-dihydroxyvitamin D3 Derivatives with Structure–Function Studies of Antagonistic and Agonistic Active Vitamin D Analogs” (Biomolecules, 2023)
